# Data taken from PMC5503785 (Journal of clinical pharmacology, 2017).
# Like-named read-outs stand apart in the source and are kept apart here.
# Columns and labels:
# [1] = assay type: in vivo, human; settings: for ω CLR/F (L·h^−1): between-subject variability; for increase in veliparib exposure: covariate model
# PARP [2] = settings: cited from earlier work
# PARP [3] = test system: PARP
# PARP [4] = settings: phase 0 study, single dose of veliparib; cited from earlier work
# CYP2D6 = settings: in vitro study; cited from earlier work
# [5] = fixed in model; fraction renally excreted; cited from earlier work
# [6] = cited from earlier work
# [7] = PBPK simulations, cited from earlier work
# [8] = bootstrap median, 250 replicates
# [9] = analysis by Li et al, one-compartment model
# [10] = population PK analysis by Salem et al, one-compartment model
# [11] = previously reported, based on NCA
smiles,measurement,setting,value
CC1(c2nc3c(C(N)=O)cccc3[nH]2)CCC(=O)N1 (centres unmarked) [M8],CLmet,[1]; [8],22.7 L/h
same,Qmet,[1]; [8],29.0 L/h
same,Vc_met,[1]; [8],23.5 L
same,Vp_met,[1]; [8],51.3 L
same,CLmet,[1]; final model estimate,22.8 L/h
same,Qmet,[1]; final model estimate,29.0 L/h
same,Vc_met,"[1]; final model estimate, metabolite central volume",23.6 L
same,Vp_met,"[1]; final model estimate, metabolite peripheral volume",51.4 L
same,potency compared to veliparib (fold less potent),PARP [2],approximately 5 fold
"C[C@]1(c2nc3c(C(N)=O)cccc3[nH]2)CCCN1 [veliparib, 2-[(R)-2-methylpyrrolidin-2-yl]-1H-benzimidazole-4-carboxamide]","expected ""true"" fraction converted to M8",[1]; 30% non-renal elimination * 72% CYP2D6 share,22%
same,accumulation on chronic dosing,"[1]; NCA approach, within dose range tested (50 to 500 mg b.i.d.)",Negligible accumulation
same,ω CLR/F (L·h^−1),[1]; bootstrap median,34.7%
same,ω CLR/F (L·h^−1),[1]; final model estimate,34.7%
same,CL/F,[1]; [8],17.3 L/h
same,Ka,[1]; [8],2.02 h⁻¹
same,"LBM effect on Vc/F, power_LBM",[1]; [8],1.21
same,Q/F,[1]; [8],17.9 L/h
same,Vc/F,[1]; [8],99.1 L
same,Vp/F,[1]; [8],47.5 L
same,tlag,[1]; [8],0.270 h
same,increase in veliparib exposure,[1]; mild renal function impairment (~25% decrease in CLCR),~ 10%
same,increase in veliparib exposure,[1]; moderate renal function impairment (~50% decrease in CLCR),~ 20%
same,dose proportionality,[1]; dose level from 50 to 500 mg,supported
same,Q/F,[1]; final model estimate,17.9 L/h
same,tlag,[1]; final model estimate,0.272 h
same,"LBM effect on Vc/F, power_LBM","[1]; final model estimate, covariate exponent",1.21
same,Vc/F (central volume of distribution),"[1]; final model estimate, typical subject LBM 48 kg",99.2 L
same,"CL/F (total clearance, CLR/F + CLNR/F)","[1]; final model estimate, typical subject LBM 48 kg, CLCR 95 mL/min",17.3 L/h
same,Ka,"[1]; final population PK model estimate, oral veliparib",2.02 h⁻¹
same,fm,"[1]; fixed in model, fraction metabolized to M8 assumed as 1−frenal",0.3 (fix)
same,Vd/F,"[1]; human, plasma, oral, Vd/F (=Vc/F+ Vp/F), final model, standardized to 48 kg LBM and 95 mL/min CLCR",147 L
same,contribution of CYP2D6 metabolism to veliparib total clearance,[1]; worked out from non-renal fraction and CYP2D6 share,~ 22%
same,Inhibition of PAR compared with pre-dose baseline,"PARP [3]; 50/50 mg dose level b.i.d., PBMC",~ 50%
same,Inhibition of PARP compared with pre-dose baseline,"PARP [3]; 500/500 mg dose level b.i.d., PBMC",~ 70%
same,"IC50 for PAR reduction (Emax model, veliparib plasma concentration as driver)","PARP [3]; PBMC, estimated with low precision",0.03 µg/mL
same,inhibition of PAR levels in PBMCs,PARP [3]; dose levels ranging from 50 to 500 mg,At least 50%
same,inhibition of PAR levels in PBMC,PARP [4],Significant inhibition
same,share of overall veliparib metabolism accounted for by CYP2D6,CYP2D6,~ 72%
same,frenal,[5],0.7 (fix)
same,CL/F,[6]; [9],13.3 L/h
same,Vd/F,[6]; [9],126 L
same,CL/F,[6]; [10],20.9 L/h
same,Vd/F,[6]; [10],173 L
same,CL/F,[6]; [11],18 L/h
same,Vd/F,[6]; [11],145 L
same,higher exposure versus extensive metabolizers,[7]; CYP2D6 poor metabolizers (PM),~ 20%
same,lower exposure versus extensive metabolizers,[7]; CYP2D6 ultra-extensive metabolizers (UM),~ 20%
